Data on 31 compounds can be found in patent US6881844B2, “Indole-3-carboxamides as glucokinase activators” (Hoffman-La Roche Inc., priority 2002, dated 2005).

For `O=C(Nc1nccs1)c1cn(CC2CCCCC2)c2cc(Cl)ccc12`, the melting point was in the range of 181 to 183 °C.
With `CSc1ccc2c(C(=O)Nc3nccs3)cn(C(C)C)c2c1`, the melting point lay in the range of 172 to 176 °C.
The value for `CCCCn1cc(C(=O)Nc2nccs2)c2ccc(Cl)cc21` was 168 to 169 °C; that for `CC(C)n1cc(C(=O)Nc2ccc(C(F)(F)F)cn2)c2ccc(Cl)cc21` was 179 to 181 °C.
In the case of `O=C(Nc1nccs1)c1cn(CC2CCC2)c2cc(Cl)ccc12`, the melting point fell in the range of 169 to 173 °C.
As for `CC(C)n1cc(C(=O)Nc2nccs2)c2ccc(S(C)(=O)=O)cc21`, the melting point was 247 to 249 °C.
`CC(C)n1cc(C(=O)Nc2nccs2)c2ccc(F)cc21` returned a melting point of 203 to 204 °C.
Compound `Cc1ccc2c(C(=O)Nc3nccs3)cn(C(C)C)c2c1` returned a melting point of 215 to 217 °C.
Take `CC(C)Cn1cc(C(=O)Nc2nccs2)c2ccc(Cl)cc21`: the melting point is 200 to 202 °C.
In turn, `Cc1ccc(NC(=O)c2cn(C(C)C)c3cc(Cl)ccc23)nc1` gave a melting point of 132 to 134 °C.
`CC(C)n1cc(C(=O)Nc2ccc(Br)cn2)c2ccc(Cl)cc21` returned a melting point of 57 to 64 °C.
`CC(C)n1cc(C(=O)Nc2ncc(Br)s2)c2ccc(Cl)cc21` had a melting point of 240 to 242 °C.
The value for `COc1ccc2c(C(=O)Nc3nccs3)cn(C(C)C)c2c1` was 182 to 185 °C.
In turn, `CC(C)n1cc(C(=O)Nc2nccs2)c2ccc(Cl)cc21` registered a melting point of 202 to 204 °C.
The compound `CC(C)n1cc(C(=O)Nc2ccc(Cl)cn2)c2ccc(Cl)cc21` yielded a melting point of 131 to 134 °C.
Under `CC(C)n1cc(C(=O)Nc2nncs2)c2ccc(Cl)cc21` stands 274 to 275 °C.
Turning to `Cc1csc(NC(=O)c2cn(C(C)C)c3cc(Cl)ccc23)n1`, the melting point lay in the range of 201 to 203 °C.
The compound `CCn1cc(C(=O)Nc2nccs2)c2ccc(Cl)cc21` yielded a melting point of 234 to 236 °C.
Compound `CC(C)n1cc(C(=O)Nc2nccs2)c2ccc(Br)cc21` had a melting point of 205 to 207 °C.
`CC(C)CCn1cc(C(=O)Nc2nccs2)c2ccc(Cl)cc21` had a melting point of 179 to 180 °C.
`CC(C)n1cc(C(=O)Nc2ncc(Cl)s2)c2ccc(Cl)cc21` displayed a melting point of 252 to 253 °C.
For the compound `CCOC(=O)Cc1csc(NC(=O)c2cn(C(C)C)c3cc(Cl)ccc23)n1`, the melting point fell in the range of 65 to 75 °C.
Turning to `CC(C)n1cc(C(=O)Nc2nccs2)c2ccc(O)cc21`, the melting point was in the range of 239 to 241 °C.
The compound `CC(C)n1cc(C(=O)Nc2ccccn2)c2ccc(Cl)cc21` registered a melting point of 149 to 150 °C.
With `O=C(Nc1nccs1)c1cn(CC2CCCC2)c2cc(Cl)ccc12`, the melting point was 117 to 119 °C.
The compound `O=C(Nc1nccs1)c1cn(CC2CC2)c2cc(Cl)ccc12` gave a melting point of 185 to 187 °C.
Compound `CCCn1cc(C(=O)Nc2nccs2)c2ccc(Cl)cc21` yielded a melting point of 175 to 176 °C.
The compound `CC(C)n1cc(C(=O)Nc2nccs2)c2ccc([N+](=O)[O-])cc21` showed a melting point of 236 to 239 °C.
`Cc1cnc(NC(=O)c2cn(C(C)C)c3cc(Cl)ccc23)s1`: the melting point was in the range of 216 to 219 °C.
The value for `CCCCCn1cc(C(=O)Nc2nccs2)c2ccc(Cl)cc21` was 139 to 141 °C.
`CC(C)n1cc(C(=O)Nc2nccs2)c2ccc(C(F)(F)F)cc21` registered a melting point of 246 to 247 °C.
